Test results reported in patent US20080274096A1, “Fusion Proteins Having a Modulated Half-Life in Plasma” (ASTRAZENECA AB, priority 2005, published 2008).

Legend:
Type in all cases: biochemical
[1] = biological target: T1, Human recombinant Neprilysin (Homo sapiens, UniProt P08473); assay: Inhibition of added Neprilysin degradation of Aβ40 in guinea pig plasma; parameters: purchased R&D Systems; host or cells: enzyme added to pooled heparinized guinea pig plasma; conditions: 10 microM Phosphoramidon
Method: Blood was withdrawn from anaesthetized guinea pigs by heart puncture. The blood were collected into prechilled heparin-plasma tubes and centrifuged for 10 min at 4° C. at 3000×g within 20 minutes of sampling. Plasma samples were transferred to pre-chilled polypropylene tubes and immediately frozen on dry ice and stored at −70° C. prior to use. The experiments were performed on a pool of plasma from 5-6 guinea pigs.
Human recombinant Neprilysin in a buffer containing 25 mM Tris and 100 mM NaCl pH 8 (R&D Systems) or buffer only (i.e. vehicle) was incubated with guinea pig plasma at 37° C. for 0-360 minutes in presence or absents of 10 microM phosphoramidon (Biomol). A final concentration of 4.7 mM EDTA was added into the tubes before the amount of Aβ1-40 or Aβ1-42 was analyzed by using commercial ELISA kits obtained from Biosource (Aβ1-40) or Innogenetics (Aβ1-42).

[2] = biological target: T1, Human recombinant Neprilysin; assay: Inhibition of Neprilysin degradation of amyloid β1-40 peptide in buffer; parameters: Degradation of Amyloid β Peptide by Soluble Neprilysin; purchased R&D Systems; conditions: 10 microM Phosphoramidone; Neprilysin 1.8 μg/ml; 3 hours, 37° C.
Method: The assay is measuring the remaining amyloid β1-40 peptide (Bachem) concentration following its incubation in the presence of Neprilysin (R&D Systems) with or without Neprilysin inhibitor. 100 μl of reaction mixture containing of amyloid β1-40 peptide (final concentration 1 or 10 μM) and/or Neprilysin (1.8 μg/ml), and/or Phosphoramidone (10 μM) was incubated in a round bottom 96-well polypropylene plate at 37° C. for 3 hours. Following incubation, 50 μl of antibodies solution containing anti-Aβ40 (final concentration 0.125 μg/ml; Biosource) and Biotinylated 6E10 (final concentration 0.125 μg/ml; Signet) antibodies was added to each well. Plate was incubated at RT for 3 h. Following incubation, 50 μl of detection mixture of Dynabeads M280 (Dynal Biotech ASA) and secondary antibody Ru-GαR (final concentration 0.132 μg/ml) was added to all wells. Plate was incubated on a shaker at RT for 1 h and results were recorded on IGEN/Bio Veris M8 analyser. Amyloid β1-40 peptide degradation by Neprilysin was calculated as a percentage of Amyloid β1-40 peptide left after incubation in the presence of Neprilysin compared to the amyloid β1-40 peptide concentration in the absence of Neprilysin.

[3] = test system: amyloid β peptide; assay: Two-compartment membrane experiment, degradation of amyloid β peptide; conditions: degradation in one compartment connected through a membrane
Method: An experiment is performed to investigate the possibility to remove amyloid β peptide from one compartment by degradation in another compartment connected through a membrane. A similar experiment was conducted using an antibody as an amyloid β peptide agent. The experiment is described by DeMattos et al., (PNAS, 2001). By degrading the amyloid β peptide with neprilysin and/or NEP-Fc in one compartment the concentration of amyloid β peptide in the other compartment is decreased. Importantly, neprilysin or NEP-Fc cannot cross the membrane due to its high molecular weight (161.000 Da and 211.000 Da, respectively).

T1 sequence (P08473 52-750 limits assumed): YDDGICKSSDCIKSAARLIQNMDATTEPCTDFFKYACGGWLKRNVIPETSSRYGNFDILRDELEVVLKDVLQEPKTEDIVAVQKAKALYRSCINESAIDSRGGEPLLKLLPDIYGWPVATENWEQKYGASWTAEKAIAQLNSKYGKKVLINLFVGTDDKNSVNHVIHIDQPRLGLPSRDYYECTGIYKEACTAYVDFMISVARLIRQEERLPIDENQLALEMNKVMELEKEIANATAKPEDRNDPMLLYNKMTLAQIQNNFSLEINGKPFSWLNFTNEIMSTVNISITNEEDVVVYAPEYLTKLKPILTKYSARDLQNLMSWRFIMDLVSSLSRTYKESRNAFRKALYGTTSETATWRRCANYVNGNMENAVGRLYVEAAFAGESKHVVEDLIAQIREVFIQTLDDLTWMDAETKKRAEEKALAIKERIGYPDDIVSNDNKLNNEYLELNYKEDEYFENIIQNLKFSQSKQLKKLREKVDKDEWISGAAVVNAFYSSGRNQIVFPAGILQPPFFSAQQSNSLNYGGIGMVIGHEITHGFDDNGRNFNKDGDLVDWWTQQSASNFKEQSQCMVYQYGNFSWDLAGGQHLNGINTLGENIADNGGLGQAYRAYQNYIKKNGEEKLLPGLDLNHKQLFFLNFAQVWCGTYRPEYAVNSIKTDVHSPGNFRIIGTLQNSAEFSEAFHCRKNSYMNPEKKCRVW

Degradation of Aβ40 by added Neprilysin in the presence of inhibitor [1]	Neprilysin activity (Aβ1-40 degradation) in the presence of inhibitor [2]	Molecule	Concentration of amyloid β peptide in the other compartment [3]
inhibited	completely abolished	CC(C)C[C@H](NP(=O)(O)O[C@@H]1O[C@@H](C)[C@H](O)[C@@H](O)[C@H]1O)C(=O)N[C@@H](Cc1c[nH]c2ccccc12)C(=O)O [Phosphoramidon]	
		NEP-Fc: extracellular domain of Neprilysin fused to the IgG4 Fc domain including hinge region, SEQ ID 8	decreased
